Where two headings read alike, the source gives them in different places.
Experiments:
[1] = tested on: endotoxin (LPS)-induced uveitis in Lewis rats; assay: Endotoxin-induced uveitis in rats (in vivo vi); design: species or system rat; conditions: for Cell counts / IL-1β Anterior tissue / IL-1β Posterior tissue: Table 7c; for cytokine levels in both the anterior and posterior segments of the eyes: rats treated with intravitreal endotoxin LPS, topical dosing
Method: Male, Lewis rats (6-8 weeks old, Charles River UK Limited) are housed in cages of 3 at 19-21° C. with a 12 h light/dark cycle (07:00/19:00) and fed a standard diet of rodent chow and water ad libitum. Non-fasted rats are weighed, individually identified on the tail with a permanent marker, and receive a single intravitreal administration into the right vitreous humor (5 μL dose volume) of 100 ng/animal of LPS (Escherichia coli 0111:B4 prepared in PBS, Sigma Aldrich, UK) using a 32-gauge needle. Untreated rats are injected with PBS. […] Following euthanasia, the right eye of each animal is enucleated and dissected into front (anterior) and back (posterior) sections around the lens. Each section is weighed and homogenised in 500 μL of sterile phosphate buffered saline followed by 20 minutes centrifugation at 12000 rpm at 4° C.

p38 MAPKα (MAPK14) = p38 MAPKα (MAPK14) (Homo sapiens (Human), UniProt Q16539); assay: p38 MAPKα enzyme inhibition (FRET, Z-LYTE; Method 2); format: biochemical
Sequence of p38 MAPKα (MAPK14) (Q16539 whole entry): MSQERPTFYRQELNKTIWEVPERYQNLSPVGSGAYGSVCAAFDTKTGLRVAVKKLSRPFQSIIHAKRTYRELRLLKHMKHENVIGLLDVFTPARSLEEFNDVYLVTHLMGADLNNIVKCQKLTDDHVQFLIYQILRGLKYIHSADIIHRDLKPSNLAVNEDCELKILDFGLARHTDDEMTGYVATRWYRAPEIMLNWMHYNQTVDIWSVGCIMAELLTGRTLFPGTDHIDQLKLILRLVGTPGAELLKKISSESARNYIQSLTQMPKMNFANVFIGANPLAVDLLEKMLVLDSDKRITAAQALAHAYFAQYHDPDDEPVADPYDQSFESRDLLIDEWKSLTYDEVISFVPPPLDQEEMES

c-Src = c-Src (Homo sapiens (Human), UniProt P12931); assay: c-Src enzyme inhibition (FRET, Z-LYTE); format: biochemical
Sequence of c-Src (P12931 whole entry, looked up): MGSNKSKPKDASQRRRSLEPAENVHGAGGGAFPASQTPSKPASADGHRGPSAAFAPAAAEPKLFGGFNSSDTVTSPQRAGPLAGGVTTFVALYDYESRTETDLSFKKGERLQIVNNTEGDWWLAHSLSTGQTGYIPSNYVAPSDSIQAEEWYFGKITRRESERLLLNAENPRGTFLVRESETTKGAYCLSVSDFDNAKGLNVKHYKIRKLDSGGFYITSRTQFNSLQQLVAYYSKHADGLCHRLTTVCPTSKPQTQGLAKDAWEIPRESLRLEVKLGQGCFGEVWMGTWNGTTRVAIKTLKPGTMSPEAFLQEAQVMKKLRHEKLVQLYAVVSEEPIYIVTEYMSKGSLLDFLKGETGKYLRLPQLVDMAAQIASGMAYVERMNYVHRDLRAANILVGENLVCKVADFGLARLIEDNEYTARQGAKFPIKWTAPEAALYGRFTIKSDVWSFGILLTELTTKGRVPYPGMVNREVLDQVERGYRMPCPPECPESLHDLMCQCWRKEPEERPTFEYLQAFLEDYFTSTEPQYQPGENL
Procedure, shortened: (§1)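 Syk or c-Src enzyme (3000 or 2000 ng/mL solutions) was preincubated 2 h at RT with compound solutions at 1, 0.1, 0.01 or 0.001 µg/mL. Z-LYTE FRET peptide (8 µM solution) and ATP (800 µM solution for c-Src, 60 µM for Syk) were then added for 1 h, followed by protease development for 1 h. Phosphorylation was read as the coumarin/fluorescein emission ratio.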

[2] = tested on: β-catenin in d-U937 cells; assay: Accumulation of β catenin in d-U937 cells (assay m); format: cell-based, human
Procedure, shortened: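 U937 cells were differentiated with PMA (100 ng/mL) for 48–72 hr, then treated with compound or vehicle for 18 hr. After formaldehyde fixation, β-catenin was detected with a primary antibody and an HRP secondary using TMB (OD450–655). Signal was normalised to crystal violet cell staining (OD595).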

Syk = Syk (Homo sapiens (Human), UniProt P43405); assay: Syk enzyme inhibition (FRET, Z-LYTE); format: biochemical
Procedure, shortened: as §1

CYP3A4 = CYP3A4 (Homo sapiens (Human), UniProt P08684); assay: CYP3A4 inhibition study; format: in vitro ADME; conditions: for inhibition at 15 µM: human, read-out: 15 μM % Inh
Sequence of CYP3A4 (P08684 whole entry): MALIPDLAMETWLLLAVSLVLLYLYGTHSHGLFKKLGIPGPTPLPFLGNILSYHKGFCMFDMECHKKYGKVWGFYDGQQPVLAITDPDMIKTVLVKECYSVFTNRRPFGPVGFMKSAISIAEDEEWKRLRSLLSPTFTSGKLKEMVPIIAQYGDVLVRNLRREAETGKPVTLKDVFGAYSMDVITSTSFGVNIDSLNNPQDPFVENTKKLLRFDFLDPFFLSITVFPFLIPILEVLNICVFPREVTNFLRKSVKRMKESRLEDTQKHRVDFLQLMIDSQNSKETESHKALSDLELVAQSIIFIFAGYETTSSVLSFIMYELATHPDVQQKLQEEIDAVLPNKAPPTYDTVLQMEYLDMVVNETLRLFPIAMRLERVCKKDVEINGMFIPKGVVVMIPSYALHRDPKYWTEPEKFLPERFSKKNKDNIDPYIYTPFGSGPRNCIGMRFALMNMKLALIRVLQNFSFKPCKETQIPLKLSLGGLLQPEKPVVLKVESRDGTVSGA
Method: Assessment of certain in vitro ADME (absorption, distribution, metabolism, and excretion) parameters for certain compounds of the invention was conducted by BioFocus (Saffron Walden, UK).

GSK 3α = GSK 3α (Homo sapiens (Human), UniProt P49840); assay: GSK 3α enzyme inhibition (FRET, Z-LYTE; Method 2); format: biochemical; conditions: read-out: IC50 Values for Enzyme Inhibition GSK3α
Sequence of GSK 3α (P49840 whole entry): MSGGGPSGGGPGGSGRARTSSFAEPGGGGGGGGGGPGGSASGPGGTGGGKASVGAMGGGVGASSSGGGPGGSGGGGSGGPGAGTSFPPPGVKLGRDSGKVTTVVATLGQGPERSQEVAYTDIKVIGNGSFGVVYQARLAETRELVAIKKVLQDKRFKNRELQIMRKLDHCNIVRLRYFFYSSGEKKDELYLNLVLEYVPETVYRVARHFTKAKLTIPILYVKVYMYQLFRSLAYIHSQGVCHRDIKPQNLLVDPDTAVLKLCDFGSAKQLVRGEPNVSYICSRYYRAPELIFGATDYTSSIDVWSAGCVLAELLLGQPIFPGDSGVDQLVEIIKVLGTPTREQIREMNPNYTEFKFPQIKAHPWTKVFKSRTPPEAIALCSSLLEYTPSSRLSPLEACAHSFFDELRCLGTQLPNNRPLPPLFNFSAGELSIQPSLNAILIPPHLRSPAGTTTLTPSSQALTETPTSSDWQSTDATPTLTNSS
Procedure, shortened: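 Z-LYTE FRET assay: GSK3-α (500 ng/mL stock) preincubated 105 min at RT with compound at 10, 1, 0.1 or 0.01 μg/mL stock. FRET peptide (8 μM stock) and ATP (40 μM stock) were then added for 1 h, followed by protease development for 1 h. Phosphorylation was read as coumarin/fluorescein emission ratio.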

[3] = Plasma pharmacokinetics in rats, single intravenous or oral administration; format: in vivo, rat (male Wistar); conditions: rats
Method: Studies were conducted by Sai Life Sciences (Hinjewadi, Pune, India) to investigate the plasma pharmacokinetics and total colon tissue distribution of compounds of the invention. In particular, pharmacokinetic studies were carried out in: • male C57BL/6 mice, following a single oral administration; and • male Wistar rats following a single intravenous or oral administration.

[4] = tested on: TNBS-induced colitis in BDF1 mice; assay: TNBS-induced colitis in mice (in vivo iv); design: species or system mouse; conditions: for inflammatory cell infiltrate in the reticular and laminar propria zones / ulcer grade and epithelial repair compared to the vehicle control: 5 mg/kg orally, 2 days; for inflammatory cell infiltrate in the reticular and laminar propria zones / ulcer grade and epithelial repair compared to the vehicle control / activity in in vivo model of colonic inflammation (histopathology analysis): TNBS-induced colitis, mice; for LP inflammation / Ulcer grade: TNBS-induced colitis in mice, 5 mg/kg oral; for activity in in vivo model of colonic inflammation (histopathology analysis): conducted over 2 days
Method: Non-fasted, 10-12 week old, male BDF1 mice are dosed by oral gavage twice daily with either vehicle (5 mL/kg), reference item (Budesonide 2.5 mg/kg) or test compound (1 or 5 mg/kg) one day before (Day −1) stimulation of the inflammatory response by treatment with 2,4,6-trinitrobenzenesulphonic acid (TNBS) (15 mg/mL in 50% ethanol/50% saline). On Day 0 of the study TNBS (200 μL) is administered intra-colonically via a plastic catheter with BID dosing of the vehicle, reference or test compound continuing for 2 or 4 days. During the study, animals are weighed every day and stool observations are made and recorded as a score, based on stool consistency. At the time of sacrifice on Day 2 (or Day 4), the large intestine is removed and the length and weight recorded. Sections of the colon are taken for histopathology scoring to determine disease severity.

non-mutant kinases = format: binding; conditions: for number of individual kinase hits, S(1): non-mutant kinases with % Ctrl <1
Method: These assays may be conducted by DiscoverX (formerly Ambit; San Diego, Calif.). The percentage inhibition produced by incubation with a test compound may be calculated relative to the non-inhibited control.

[5] = Table 7a, eyes of LPS-stimulated rats, 1 mg/mL
[6] = eyes of LPS-stimulated rats, 1 mg/mL
[7] = male, Wistar, rat, plasma, intravenous 0.25 mg/kg

Row | IC50 (p38 MAPKα (MAPK14)) [nM] | IC50 (c-Src) [nM] | IC50 (Syk) [nM] | IC50 (GSK 3α) [nM] | Structure (SMILES) | % β-catenin induction ([2]; test compound 1 μg/mL) [%] | % β-catenin induction ([2]; test compound 5 μg/mL) [%] | % β-catenin induction ([2]; test compound 10 μg/mL) [%] | other results
1 | 25 | 19 | 85 | 9330 | COCCOCCOCCOc1cc(Nc2cc(Oc3ccc(NC(=O)Nc4cc(C(C)(C)C)cc(C(N)=O)c4OC)c4ccccc34)ccn2)cc(OC)c1 [Example 34, 5-(tert-Butyl)-2-methoxy-3-(3-(4-((2-((3-methoxy-5-(2-(2-(2-methoxyethoxy)ethoxy)ethoxy)phenyl)amino)pyridin-4-yl)oxy)naphthalen-1-yl)ureido)benzamide] | 1 | 7 | −9 | inflammatory cell infiltrate in the reticular and laminar propria zones [4]: marked reduction; ulcer grade and epithelial repair compared to the vehicle control [4]: marked improvements; LP inflammation [4]: 2.6 ± 0.3; Ulcer grade [4]: 3.6 ± 0.2; activity in in vivo model of colonic inflammation (histopathology analysis) [4]: substantial activity
2 | 56 | 35 | 339 | 4330 | COc1cc(Nc2cc(Oc3ccc(NC(=O)Nc4cc(C(C)(C)C)cc(NS(C)(=O)=O)c4OC)c4ccccc34)ccn2)cc(C(=O)NCCN2CCN(C)CC2)c1 [Example 79] | −4 | 1 | 5 | inflammatory cell infiltrate in the reticular and laminar propria zones [4]: marked reduction; ulcer grade and epithelial repair compared to the vehicle control [4]: marked improvements; LP inflammation [4]: 3.5 ± 0.5; Ulcer grade [4]: 3.4 ± 0.6; activity in in vivo model of colonic inflammation (histopathology analysis) [4]: substantial activity
3 | 173 | 58 | 121 | 4930 | COc1cccc(Nc2cc(Oc3ccc(NC(=O)Nc4cc(C(C)(C)C)cc(C(=O)NC5COC5)c4OC)c4ccccc34)ccn2)c1 [Example 81, 5-(tert-Butyl)-2-methoxy-3-(3-(4-((2-((3-methoxyphenyl)amino)pyridin-4-yl)oxy)naphthalen-1-yl)ureido)-N-(oxetan-3-yl)benzamide] | 4 | 14 | 13 | 

Further lines, the molecule ahead of its results:

Row | Structure (SMILES) | IC50 (p38 MAPKα (MAPK14)) [nM] | IC50 (c-Src) [nM] | IC50 (Syk) [nM] | IC50 (GSK 3α) [nM] | % β-catenin induction ([2]; test compound 1 μg/mL) [%] | % β-catenin induction ([2]; test compound 5 μg/mL) [%] | % β-catenin induction ([2]; test compound 10 μg/mL) [%] | other results
4 | C[C@@H]1C[C@H]2[C@@H]3CCC4=CC(=O)C=C[C@]4(C)[C@@]3(F)[C@@H](O)C[C@]2(C)[C@@]1(O)C(=O)CO [Dexamethasone] |  |  |  |  |  |  |  | IL-1β Anterior [1, 5]: 553.5 ± 155.7 pg/mL; IL-1β Posterior [1, 5]: 365.6 ± 178.2 pg/mL; IL-6 Anterior [1, 5]: 1000.7 ± 126.2 pg/mL; IL-6 Posterior [1, 5]: 1723.4 ± 224.1 pg/mL; MCP-1 Anterior [1, 5]: 156.3 ± 50.8 pg/mL; MCP-1 Posterior [1, 5]: 95.2 ± 32.5 pg/mL
5 | COc1cc(Nc2nccc(Oc3ccc(NC(=O)Nc4cc(C(C)(C)C)cc(NS(C)(=O)=O)c4OC)c4ccccc34)n2)cc(S(=O)(=O)C2CC2)c1 [Example 5] | 271 | 48 | 1170 | 2870 | 10 | 27 | 19 | IC50 (CYP3A4; CYP3A4, 0 min preincubation): > 15000 nM; IC50 (CYP3A4; CYP3A4, 30 min preincubation): > 15000 nM; inhibition at 15 µM (CYP3A4; CYP3A4, 0 min preincubation): 0%; inhibition at 15 µM (CYP3A4; CYP3A4, 30 min preincubation): 27%
6 | CNC(=O)c1cc(C(C)(C)C)cc(NC(=O)Nc2ccc(Oc3ccnc(Nc4cc(OC)cc(OCCOCCOCCOC)c4)c3)c3ccccc23)c1OC [Example 29, 5-(tert-Butyl)-2-methoxy-3-(3-(4-((2-((3-methoxy-5-(2-(2-(2-methoxyethoxy)ethoxy)-ethoxy)phenyl)amino)pyridin-4-yl)oxy)naphthalen-1-yl)ureido)-N-methylbenzamide] | 26 | 19 | 96 | 6320 | 4 | 7 | −4 | Cell counts [1, 6]: 33.0 ± 6.7; IL-1β Anterior tissue [1, 6]: 441.3 ± 138.5 pg/mL; IL-1β Posterior tissue [1, 6]: 272.1 ± 93.8 pg/mL; cytokine levels in both the anterior and posterior segments of the eyes [1]: significantly reduced; AUC(0-inf) [3, 7]: 295 ng·h/mL; AUC(0-t) [3, 7]: 293 ng·h/mL; half-life [3, 7]: 42 min; C0 ([3]; male, Wistar, rat, plasma, intravenous 0.25 mg/kg in 5% DMSO-7.5% Solutol HS15-87.5% normal saline): 2500 ng/mL; Vd ([3]; male, Wistar, rat, plasma, intravenous 0.25 mg/kg, read-out: Vss): 0.3 L/kg; CI ([3]; intravenous 0.25 mg/kg): 14.2 mL/min/kg
7 | COc1cc(Nc2cc(Oc3ccc(NC(=O)Nc4cc(C(C)(C)C)cc(NS(C)(=O)=O)c4OC)c4ccccc34)ccn2)cc(C(=O)NCCCN2CCOCC2)c1 [Example 66, 3-((4-((4-(3-(5-(tert-Butyl)-2-methoxy-3-(methysulfonamido)phenyl)ureido)naphthalen-1-yl)oxy)pyridin-2-yl)amino)-5-methoxy-N-(3-morpholinopropyl)benzamide] | 140 | 23 | 330 | 2430 | 0 | 6 | 3 | Cell counts [1, 6]: 28.0 ± 7.6; IL-1β Anterior tissue [1, 6]: 342.7 ± 145.3 pg/mL; IL-1β Posterior tissue [1, 6]: 209.9 ± 59.0 pg/mL; cytokine levels in both the anterior and posterior segments of the eyes [1]: significantly reduced
8 | COCC(=O)Nc1cc(Oc2ccc(NC(=O)Nc3cc(C(C)(C)C)nn3-c3ccc(C)cc3)c3ccccc23)ccn1 [Reference Compound, N-(4-(4-(3-(3-tert-butyl-1-p-tolyl-1H-pyrazol-5-yl)ureido)naphthalen-1-yloxy)pyridin-2-yl)-2-methoxyacetamide, reference compound] |  |  |  |  |  |  |  | number of individual kinase hits, S(1) (non-mutant kinases; 50 nM): 7; number of individual kinase hits, S(10) (non-mutant kinases; 50 nM, non-mutant kinases with % Ctrl <10): 32; number of individual kinase hits, S(35) (non-mutant kinases; 50 nM, non-mutant kinases with % Ctrl <35): 67; number of individual kinase hits, S(1) (non-mutant kinases; 500 nM): 45
